Here are results for 37 compounds from US7632829B2, “Diazepan derivatives” (Hoffmann-La Roche Inc., priority 2006, dated 2009).

Structures can show the parent of a compound that is named as a salt.

This experiment has as its target T1, human chemokine receptor 2 isoform B (Homo sapiens, UniProt P41597).
T1 construct: host or cells: CHOK1-CCR2B-A5 (CHO-K1)
T1 sequence (P41597 1-360 isoform P41597-2): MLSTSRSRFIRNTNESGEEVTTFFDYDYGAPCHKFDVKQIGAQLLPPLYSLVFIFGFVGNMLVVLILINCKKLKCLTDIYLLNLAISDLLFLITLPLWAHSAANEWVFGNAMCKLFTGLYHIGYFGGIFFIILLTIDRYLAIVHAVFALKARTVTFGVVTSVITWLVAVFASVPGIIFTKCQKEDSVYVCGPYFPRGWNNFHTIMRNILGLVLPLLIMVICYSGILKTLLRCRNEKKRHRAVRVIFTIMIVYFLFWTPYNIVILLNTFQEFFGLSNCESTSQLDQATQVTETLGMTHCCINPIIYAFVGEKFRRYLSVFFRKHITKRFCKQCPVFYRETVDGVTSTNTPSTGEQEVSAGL
The experiment is described as follows: Calcium mobilization assay (FLIPR, CHOK1-CCR2B-A5 cells, 20 nM MCP-1). In kind it is cell-based. Conditions: Ca mobilisation assay, CCR2, antagonist activity vs 20 nM MCP-1. As for the experimental part:
CHOK1-CCR2B-A5 cells (from Euroscreen) stably overexpressing the human chemokine receptor 2 isoform B were cultured in Nutrient Hams F12 medium supplemented with 5% FBS, 100 U/ml penicillin, 100 μg/ml streptomycin, 400 μg/ml G418 and 5 μg/ml puromycin.
For the assay cells were grown overnight in 384-well black clear flat bottom polystyrene plates (Costar) at 37° C. at 5% CO2. After washing with DMEM, 20 mM Hepes, 2.5 mM probenecid, 0.1% BSA (DMEM assay buffer) cells were loaded with 4 μM Fluo-4 in the same DMEM assay buffer for 2 hours at 30° C. Excess dye was removed and cells were washed with DMEM assay buffer. 384-well compound plates were prepared with DMEM assay buffer/0.5% DMSO with or without various concentrations of test compounds. Usually compounds were tested for agonist and antagonist activity.
Test compounds were added to the assay plate and agonist activity was monitored as fluorescence for 80 seconds with a FLIPR (488 nm excitation; 510-570 nm emission; Molecular Devices). After 20-30 min. of incubation at 30° C., 20 nM MCP-1 (R&D; Roche) was added and fluorescence was monitored again for 80 seconds. Increases in intracellular calcium are reported as maximum fluorescence after agonist exposure minus basal fluorescence before exposure. Antagonist activity is indicated as inhibitor concentration required for 50% inhibition of specific calcium increases.
(In general: Calcium flux is commonly read through the fluorescence of an indicator in the cells.)

Regarding `CC1(CO)CCCCN1CCCCN1CCN(C(=O)/C=C/c2ccc(Cl)c(Cl)c2)CCC1=O` (racemic) [Example 447], the IC50 (usually the concentration that inhibits the measured activity by half) amounted to 0.092 µM.

As for `CC1CCCCN1CCCN1CCN(C(=O)/C=C/c2ccc(Cl)c(Cl)c2)CCC1=O` (racemic) [Example 62, (+/−)-1-[(E)-3-(3,4-Dichloro-phenyl)-acryloyl]-4-[3-(2-methyl-piperidin-1-yl)-propyl]-[1,4]diazepan-5-one], the 50% inhibitory concentration (IC50) stood at 0.165 µM.

`CC(=O)NC1CCN(CC(O)CCN2CCN(C(=O)/C=C/c3ccc(Cl)c(Cl)c3)CCC2=O)CC1` (racemic) [Example 370]: the IC50 was determined as 0.341 µM.

On to `O=C(/C=C/c1ccc(F)c(Cl)c1)N1CCC(=O)N(CCCN2CCC3(CC3)C(O)C2)CC1` (stereo not drawn) [Example 189, 1-[(E)-3-(3-Chloro-4-fluoro-phenyl)-acryloyl]-4-[3-((-)-4-hydroxy-6-aza-spiro[2.5]oct-6-yl)-propyl]-[1,4]diazepan-5-one], for which the IC50 is 0.008 µM.

As for `O=C(/C=C/c1ccc(Cl)c(Cl)c1)N1CCC(=O)N(CC(O)CN2CCC(O)C3(CC3)C2)CC1` (racemic) [Example 317], the IC50 worked out at 0.528 µM.

For `O=C(/C=C/c1ccc(F)c(Cl)c1)N1CCC(=O)N(CCCN2CC[C@H](CO)[C@H](O)C2)CC1` (racemic) [Example 215], the concentration for half-maximal inhibition (IC50) was 0.356 µM.

Consider `CC1(CO)CCCN(CC(O)CN2CCN(C(=O)/C=C/c3ccc(Cl)c(Cl)c3)CCC2=O)C1` (racemic) [Example 305], for which the half-maximal inhibitory concentration (IC50) is 0.192 µM.

For the compound `O=C(/C=C/c1ccc(Cl)c(Cl)c1)N1CCC(=O)N(CC(O)CN2CCCCC2CO)CC1` (racemic) [Example 290], the concentration for half-maximal inhibition (IC50) was found to be 0.199 µM.

As to `COC(=O)C(CCCN1CCCCC1)N1CCN(C(=O)/C=C/c2ccc(Cl)c(Cl)c2)CCC1=O` (racemic) [Example 179, (rac)-2-{4-[(E)-3-(3,4-Dichloro-phenyl)-acryloyl]-7-oxo-[1,4]diazepan-1-yl}-5-piperidin-1-yl-pentanoic acid methyl ester], the half-maximal inhibitory concentration (IC50) was 0.003 µM.

Regarding `O=C(/C=C/c1ccc(F)c(Cl)c1)N1CCC(=O)N(CCCN2CCC(CO)CC2)CC1` [Example 212], the IC50 amounted to 0.437 µM.

With `O=C(C=Cc1ccc(Cl)c(Cl)c1)N1CCC(=O)N(CCNC2CCCCC2O)CC1` (stereo not shown) [Example 357], the IC50 came out at 0.385 µM.

Turning to `O=C(C=Cc1ccc(Cl)c(Cl)c1)N1CCC(=O)N(CCCN2CCC(O)C(F)C2)CC1` (mixture of isomers) [Example 231, (rac,trans)-1-[(E)-3-(3,4-Dichloro-phenyl)-acryloyl]-4-[3-(3-fluoro-4-hydroxy-piperidin-1-yl)-propyl]-[1,4]diazepan-5-one], the half-maximal inhibitory concentration (IC50) is 0.218 µM.

As for `N#CC1(c2ccccc2)CCN(CCN2CCN(C(=O)/C=C/c3ccc(Cl)c(Cl)c3)CCC2=O)CC1` [Example 101, 1-(-3-{4-[(E)-3-(3,4-Dichloro-phenyl)-acryloyl]-7-oxo-[1,4]diazepan-1-yl}-ethyl)-4-phenyl-piperidine-4-carbonitrile], the IC50 came out at 1.23 µM.

As to `CC1CCCCC1NCCN1CCN(C(=O)C=Cc2ccc(Cl)c(Cl)c2)CCC1=O` (mixture of isomers) [Example 104, cis/trans-1-[(E)-3-(3,4-Dichloro-phenyl)-acryloyl]-4-[3-(2-methyl-cyclohexylamino)-ethyl]-[1,4]diazepan-5-one], the IC50 turned out to be 0.598 µM.

As for `CC1(CO)CCCCN1CCCCN1CCN(C(=O)/C=C/c2ccc(F)c(Cl)c2)CCC1=O` (racemic) [Example 407], the IC50 was 0.264 µM.

Consider `O=C(/C=C/c1ccc(F)c(Cl)c1)N1CCC(=O)N(CCCCN2CC[C@@H](O)[C@H](F)C2)CC1` (racemic) [Example 394], for which the IC50 worked out at 0.551 µM.

Turning to `CC(C)N1CCN(CCCN2CCN(C(=O)/C=C/c3ccc(Cl)c(Cl)c3)CCC2=O)CC1` [Example 240], the half-inhibitory concentration (IC50) was 0.105 µM.

As to `O=C(C=Cc1ccc(F)c(Cl)c1)N1CCC(=O)N(CCCN2CCC(F)C(O)C2)CC1` (mixture of isomers) [Example 213, (rac,trans)-1-[(E)-3-(3-Chloro-4-fluoro-phenyl)-acryloyl]-4-[3-(4-fluoro-3-hydroxy-piperidin-1-yl)-propyl]-[1,4]diazepan-5-one], the IC50 turned out to be 0.421 µM.

`O=C(/C=C/c1ccc(Cl)c(Cl)c1)N1CCC(=O)N(CC(O)CN2CCCC(CO)C2)CC1` (racemic) [Example 289]: the IC50 turned out to be 0.296 µM.

For the compound `O=C(/C=C/c1ccc(F)c(Cl)c1)N1CCC(=O)N(C[C@@H](O)CN2CC[C@H](CO)[C@H](O)C2)CC1` (mixture of isomers) [Example 337, 1-[(E)-3-(3-Chloro-4-fluoro-phenyl)-acryloyl]-4-[(S)-2-hydroxy-3-(cis-3-hydroxy-4-hydroxymethyl-piperidin-1-yl)-propyl]-[1,4]diazepan-5-one], the IC50 amounted to 0.071 µM.

As to `CC1CCN(CC(O)CCN2CCN(C(=O)/C=C/c3ccc(Cl)c(Cl)c3)CCC2=O)CC1` (racemic) [Example 377], the IC50 worked out at 0.697 µM.

For `O=C(/C=C/c1ccc(Cl)c(Cl)c1)N1CCC(=O)N(C[C@@H](O)CN2CCCCC2)CC1` [Example 167, 1-[(E)-3-(3,4-Dichloro-phenyl)-acryloyl]-4-((S)-2-hydroxy-3-piperidin-1-yl-propyl)-[1,4]diazepan-5-one], the IC50 was 0.028 µM.

Turning to `C[C@H]1[C@H](O)CCCN1CC(O)CN1CCN(C(=O)/C=C/c2ccc(Cl)c(Cl)c2)CCC1=O` (mixture of isomers) [Example 282], the IC50 is 0.212 µM.

For the compound `CC1C(O)CCCN1CCCN1CCN(C(=O)C=Cc2ccc(F)c(Cl)c2)CCC1=O` (mixture of isomers) [Example 208, (rac,trans)-1-[(E)-3-(3-Chloro-4-fluoro-phenyl)-acryloyl]-4-[3-(3-hydroxy-2-methyl-piperidin-1-yl)-propyl]-[1,4]diazepan-5-one], the half-maximal inhibitory concentration (IC50) stood at 0.78 µM.

`COCC1CCCN(CCCCN2CCN(C(=O)/C=C/c3ccc(F)c(Cl)c3)CCC2=O)C1` (racemic) [Example 392]: the IC50 stood at 0.054 µM.

On to `O=C1NCC2(CCN(CCCN3CCN(C(=O)/C=C/c4ccc(Cl)c(Cl)c4)CCC3=O)CC2)O1` [Example 84, 8-(3-{4-[(E)-3-(3,4-Dichloro-phenyl)-acryloyl]-7-oxo-[1,4]diazepan-1-yl}-propyl)-1-oxa-3,8-diaza-spiro[4.5]decan-2-one], for which the half-maximal inhibitory concentration (IC50) worked out at 0.223 µM.

Consider `CC1CC(O)CN(CCCN2CCN(C(=O)C=Cc3ccc(Cl)c(Cl)c3)CCC2=O)C1` (mixture of isomers) [Example 279, (rac,cis)-1-[(E)-3-(3,4-Dichloro-phenyl)-acryloyl]-4-[3-(3-hydroxy-5-methyl-piperidin-1-yl)-propyl]-[1,4]diazepan-5-one], for which the IC50 was 0.005 µM.

`CC1(C)CCN(C[C@H](O)CCN2CCN(C(=O)/C=C/c3ccc(F)c(Cl)c3)CCC2=O)CC1O` (stereo partly shown) [Example 500]: the concentration for half-maximal inhibition (IC50) was 0.451 µM.

For the compound `C[C@@H]1CN(CCCN2CCCCC2)C(=O)CCN1C(=O)/C=C/c1ccc(Cl)c(Cl)c1` [Example 186, (R)-1-[(E)-3-(3,4-Dichloro-phenyl)-acryloyl]-2-methyl-4-(3-piperidin-1-yl-propyl)-[1,4]diazepan-5-one], the IC50 worked out at 0.038 µM.

With “(rac)-N-[1-(4-{4-[(E)-3-(3,4-Dichloro-phenyl)-acryloyl]-7-oxo-[1,4]diazepan-1-yl}-butyl)-piperidin-3-yl]-acetamide [Example 463]”, the IC50 amounted to 0.348 µM.

For `O=C(/C=C/c1ccc(Cl)c(Cl)c1)N1CCC(=O)N(CC(O)CN2CCCC(O)C2)CC1` (racemic) [Example 281], the 50% inhibitory concentration (IC50) stood at 0.129 µM.

On to `O=C(/C=C/c1ccc(Cl)c(Cl)c1)N1CCC(=O)N(CCCN2CCC3(CC3)C(O)C2)CC1` (racemic) [Example 251], for which the 50% inhibitory concentration (IC50) worked out at 0.008 µM.

`O=C(/C=C/c1ccc(F)c(Cl)c1)N1CCC(=O)N(CCCCN2CCC(O)C2)CC1` (racemic) [Example 393]: the IC50 amounted to 0.878 µM.

With `O=C(/C=C/c1ccc(Cl)c(Cl)c1)N1CCC(=O)N(CCCN2CC[C@@H](O)[C@@H](F)C2)CC1` (racemic) [Example 233, (rac, cis)-1-[(E)-3-(3,4-Dichloro-phenyl)-acryloyl]-4-[3-(3-fluoro-4-hydroxy-piperidin-1-yl)-propyl]-[1,4]diazepan-5-one], the concentration for half-maximal inhibition (IC50) came to 0.359 µM.

Consider `CC1CCC(O)CN1CCCN1CCN(C(=O)/C=C/c2ccc(Cl)c(Cl)c2)CCC1=O` (racemic) [Example 272], for which the IC50 stood at 0.191 µM.

On to `CC1(CO)CCN(CC(O)CN2CCN(C(=O)C=Cc3ccc(Cl)c(Cl)c3)CCC2=O)CC1O` (single isomer, unassigned) [Example 331], for which the IC50 came to 0.059 µM.

Turning to `O=C(/C=C/c1ccc(Cl)c(Cl)c1)N1CCC(=O)N(CCCCN2CC[C@H](O)[C@H](O)C2)CC1` (racemic) [Example 163, 1-[(E)-3-(3,4-Dichloro-phenyl)-acryloyl]-4-[4-((3RS,4SR)-3,4-dihydroxy-piperidin-1-yl)-butyl]-[1,4]diazepan-5-one hydrochlorid], the IC50 worked out at 0.56 µM.
